Values of other authors in patent EP4115885A1 (Charité - Universitätsmedizin Berlin, priority 2021, dated 2023).

Experiments:
[1] = human, in vivo

In the case of `C[C@@H]1CN(Cc2ccc(F)cc2)CCN1C(=O)COc1ccc(Cl)cc1NC(N)=O` [BAY 86-5277, N-[5-chloro-2-[2-[(2R)-4-[(4-fluorophenyl)methyl]-2-methyl-1-piperazinyl]-2-oxoethoxy]phenyl]-urea], the “effect of blockade of CCR1” value (model of sepsis) is listed as “beneficial” and the tolerability [1] is listed as “generally well tolerated”.
